Experimental findings from patent publication US20250163072A1, “MACROCYCLIC COMPOUNDS FOR THE TREATMENT OF CANCER” (Hoffmann-La Roche Inc., priority 2021, published 2025) are described below.

The term IC50 denotes the midpoint of a concentration-inhibition curve. The half-life is the time in which the quantity being followed falls by half. Read a high half-life as slow loss.

Read-outs that look alike come from different tables or passages of the source.

The target of series [1] is T1, KRAS G12C-BRAF complex (Homo sapiens (Human), UniProt P01116+P62937, G12C). In words: KRAS G12C-BRAF NanoBit assay. The note with it: HEK293 cells, SmBit-KRAS G12C and BRAF RBD-LgBit, 3 hours incubation. Type of series: cell-based. As to the method:
This assay is to measure the ability of tested compounds in disruption of the KRAS G12C-BRAF complex at the cellular level, we established the NanoBit cellular assay in mammalian HEK293 (ATCC) cells. HEK293 cells were grown and maintained using DMEM medium (Thermo Fisher Scientific) with 10% fetal bovine serum and 1% penicillin/streptomycin. Both KRAS G12C and BRAF RBD were cloned into the NanoBit vectors ([…] vectors system, Promega) with the orientations SmBit-KRAS G12C and BRAF RBD-LgBit, respectively, and co-transfected into HEK293 cells. Cells were then selected with 100 μg/mL Hygromycin B (10687010, Thermo Fisher) and Blasticidin (5 μg/mL) for 4 weeks to get the stable cell pool. On the day of the assay, 75 nL of compound solution was presented in a 384-well assay plate as a 16-point 3-fold dilution starting from a final concentration of 30 μM in DMSO. Then cells were seeded at 10,000 cells/25 μL/well in a 384-well plate. After 3 hours of incubation, 6 μL of volume of Nano-Glo® Live Cell Substrate (Promega) was added into each well. Monitor luminescence using ultra384 model in Envision at 20 minutes. Compounds that facilitate disruption of the KRAS G12C-BRAF RBD complex were identified as those eliciting a decrease of luminescence relative to DMSO control wells.

Series [2] addresses T1, KRAS G12C-BRAF complex. In words: KRAS-BRAF with CYPA (50 nM) interaction assay (TR-FRET), G12C. Type of series: binding. Particulars: GMPPNP loaded 6His-KRAS, GST-BRAF RBD. The method, boiled down: (§1)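 Buffer 25 mM HEPES pH 7.4, 100 mM NaCl, 5 mM MgCl2, 10 μM GMPPNP, 0.1% BSA; final 50 nM tagless CYPA, 6.25 nM GMPPNP-loaded 6His-KRAS mutant, 1 nM GST-BRAF RBD. Compounds 16-point 3-fold series from 10 μM, 3 h; anti-6His-XL665/anti-GST-Tb added, 1.5 h; 665/615 nm ratio decrease versus DMSO.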
On the technique in general: Time-resolved FRET reads energy transfer from a long-lived donor to a nearby acceptor.

Series [3] has as its system KRAS G12C in NCI-H358 cells. In words: pERK inhibition assay, NCI-H358. Type of series: cell-based, human. The note with it: 4 hours incubation. The method, boiled down: (§2)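 NCI-H358, AGS and SW620 cells in RPMI-1640/10% FBS were plated overnight, then exposed to compound (0.5% DMSO final) for 4 h. After fixation and permeabilization, phospho-ERK was quantified by in-cell ELISA (HRP secondary, TMB, OD450); IC50 from a 4-parameter sigmoidal fit.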

Series [4] relates to KRAS G12V in SW620. In words: pERK inhibition assay, SW620. Type of series: cell-based, human. Particulars: 4 hours incubation. A digest of the protocol:
as §2

Series [5] has as its system NCI-H358 cells. In words: Cell viability assay, NCI-H358. Particulars: NCI-H358, 72 hours, Cell Counting Kit-8, read-out: G12C IC50. Type of series: cell-based, human. A digest of the protocol:
(§3)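 Cells were plated at 5,000 (NCI-H358) or 2,000 (AGS, SW620) per well and incubated overnight. They were then treated with compound in 0.5% DMSO for 72 h. Viability was read with CCK-8 as OD450 minus OD650 after 2 h, and IC50 came from a 4-parameter sigmoidal fit.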
In general terms: Tetrazolium dyes change colour on reduction, which living cells bring about.

Series [6] has as its target KRAS G12D binding to BRAF (Homo sapiens (Human), UniProt P01116+P62937, G12D). In words: KRAS-BRAF with CYPA (50 nM) interaction assay (TR-FRET), G12D. Particulars: GMPPNP loaded 6His-KRAS, GST-BRAF RBD. A digest of the protocol: as §1
Series [7] concerns SW620 cells. In words: Cell viability assay, SW620. Type of series: cell-based, human. Particulars: Cell Counting Kit-8, read-out: G12V IC50. A digest of the protocol:
as §3

The target of series [8] is KRAS G12V binding to BRAF (Homo sapiens (Human), UniProt P01116+P62937, G12V). In words: KRAS-BRAF with CYPA (50 nM) interaction assay (TR-FRET), G12V. The note with it: GMPPNP loaded 6His-KRAS, GST-BRAF RBD. The method, boiled down:
as §1

Series [9] concerns KRAS G12D in AGS cells. In words: pERK inhibition assay, AGS. Type of series: cell-based, human. The note with it: 4 hours incubation. A digest of the protocol: as §2
Series [10] relates to AGS cells. In words: Cell viability assay, AGS. Type of series: cell-based, human. The note with it: 72 hours, Cell Counting Kit-8, read-out: G12D IC50. The method, boiled down:
as §3

Series [11] can be described thus: Human hepatocytes stability assay. The note with it: for CL_hep (Human): 1 μM compound, human hepatocytes 1×10^6 cells/mL. Type of series: in vitro ADME. The method, boiled down: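 Compound at 1 μM incubated with cryopreserved suspension hepatocytes (1×10^6 cells/mL) in supplemented Williams' E Medium at 37° C, 5% CO2, with shaking. Reactions quenched with methanol at 2, 10, 20, 40, 60 and 120 min; parent depletion followed by LC-MS/MS.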

Series [12] deals with GSH. In words: GSH reaction rates (inherent GSH reactivity). Type of series: in vitro ADME. Particulars: buffer, pH 7.4. The method, boiled down: (§4)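 Compounds at 1 μM were incubated at 37° C with or without 5 mM GSH in 100 mM potassium phosphate pH 7.4 for 0-6 h. Samples were quenched with acetonitrile/N-ethylmaleimide and the remaining compound quantified by LC-MS/MS to derive T1/2.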

A short description of series [13]: GSH reaction rates (inherent GSH reactivity). Type of series: in vitro ADME. A digest of the protocol: as §4
The mark [14] stands for this setting: Homo sapiens, SW-620, SW620 cells.
The mark [15] stands for this setting: Homo sapiens, SW-620, SW620, 72 hours.

T1 sequence (P01116-2 other isoform, or with tags, fused parts or gaps G12C): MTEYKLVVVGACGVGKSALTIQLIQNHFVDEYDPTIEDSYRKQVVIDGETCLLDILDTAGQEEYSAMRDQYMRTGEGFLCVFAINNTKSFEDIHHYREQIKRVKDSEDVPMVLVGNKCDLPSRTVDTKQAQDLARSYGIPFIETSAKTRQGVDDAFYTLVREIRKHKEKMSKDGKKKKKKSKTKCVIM
T1 sequence (P62937 whole entry): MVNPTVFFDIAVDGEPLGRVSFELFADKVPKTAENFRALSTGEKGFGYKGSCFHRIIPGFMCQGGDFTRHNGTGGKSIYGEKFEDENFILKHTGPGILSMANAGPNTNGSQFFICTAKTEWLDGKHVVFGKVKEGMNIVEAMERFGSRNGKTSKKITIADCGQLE
Sequence of KRAS G12D binding to BRAF (P01116-2 other isoform, or with tags, fused parts or gaps G12D): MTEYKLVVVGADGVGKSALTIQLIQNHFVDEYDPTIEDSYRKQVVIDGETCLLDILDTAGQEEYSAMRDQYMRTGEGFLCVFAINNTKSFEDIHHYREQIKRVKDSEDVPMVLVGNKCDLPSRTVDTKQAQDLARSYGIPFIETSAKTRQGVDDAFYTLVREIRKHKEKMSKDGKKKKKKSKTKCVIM
Sequence of KRAS G12D binding to BRAF (P62937 whole entry): as the sequence (P62937 whole entry) above
Sequence of KRAS G12V binding to BRAF (P01116-2 other isoform, or with tags, fused parts or gaps G12V): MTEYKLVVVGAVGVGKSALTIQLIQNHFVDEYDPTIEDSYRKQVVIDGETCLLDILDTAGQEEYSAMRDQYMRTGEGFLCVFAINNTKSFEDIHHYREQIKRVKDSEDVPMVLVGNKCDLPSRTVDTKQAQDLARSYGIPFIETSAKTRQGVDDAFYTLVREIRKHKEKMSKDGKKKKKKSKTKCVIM
Sequence of KRAS G12V binding to BRAF (P62937 whole entry): as the sequence (P62937 whole entry) above

On to `CO[C@@H](C)c1ncc(N2CCN(C)CC2)cc1-c1c2c3cc(ccc3n1CC(F)(F)F)-c1csc(n1)C[C@H](NC(=O)[C@H](C(C)C)N1CC[C@]3(CCN(C(=O)[C@H](F)Cl)C3)C1=O)C(=O)N1CCC[C@H](N1)C(=O)OCC(C)(C)C2` [Example 24, (2S)-2-[(5R)-7-[(2R)-2-chloro-2-fluoro-acetyl]-1-oxo-2,7-diazaspiro[4.4]nonan-2-yl]-N-[(7S,13S)-(20M)-20-[2-[(1S)-1-methoxyethyl]-5-(4-methylpiperazin-1-yl)-3-pyridyl]-17,17-dimethyl-8,14-dioxo-21-(2,2,2-trifluoroethyl)-15-oxa-4-thia-9,21,27,28-tetrazapentacyclo[17.5.2.12,5.19,13.022,26]octacosa-1(25),2,5(28),19,22(26),23-hexaen-7-yl]-3-methyl-butanamide], for which the IC50 in series [1] is 36 nM; in series [2], 21 nM; in series [3], 2 nM; in series [4] (SW620 cells) it was 42 nM; in series [5], < 0.6 nM; in [6] it was > 10000 nM. Moreover, the IC50 in [7] (SW620, 72 hours) was 489 nM; in [8], > 10000 nM; in series [9], 65 nM; in series [10] it was 886 nM.

Turning to `CC(C)[C@@H](C(=O)N[C@H]1Cc2cc(O)cc(c2)-c2ccc3c(C(C)(C)C#N)cn(c3c2)CC(C)(C)COC(=O)[C@@H]2CCCN(N2)C1=O)N1CCCC2(CCN(C(=O)CCl)C2)C1=O` (some centres unmarked) [RM351, reference compound], the IC50 is 356 nM in [3] (Homo sapiens); > 10000 nM in series [4] (setting [14]); 1390 nM in [5] (Homo sapiens); 4810 nM in series [7] (setting [15]); > 10000 nM in [9] (Homo sapiens); 2100 nM in series [10] (Homo sapiens). The “CL_hep (Human)” value in series [11] stood at 15.5 mL/min/kg. The same compound gave a half-life at 1 μM in series [12] of 4.3 h. Further, the “conjugation with GSH (in words)” value in series [13] is given as “formed conjugation with GSH”.

`CCn1c(-c2cccnc2[C@H](C)OC)c2c3cc(ccc31)-c1cc(O)cc(c1)C[C@H](NC(=O)[C@H](C(C)C)N(C)C(=O)C1CN(C(=O)CCl)C1)C(=O)N1CCC[C@H](N1)C(=O)OCC(C)(C)C2` [RM461, reference compound]: the IC50 in series [3] (Homo sapiens) is 7 nM; in series [4] (setting [14]), > 10000 nM; in series [5] (Homo sapiens) it was 22 nM; in [7] (setting [15]), 4040 nM; in [9] (Homo sapiens) it was > 10000 nM; in series [10] (Homo sapiens), 2710 nM. Further, the “CL_hep (Human)” value in [11] was found to be 16.4 mL/min/kg. In addition, the “Clearance Category” value in series [11] (human hepatocytes) is “high (CL_hep (mL/min/kg)>16.24 is high clearance)”. In series [12], this compound had a half-life at 1 μM of 5 h. Moreover, the “conjugation with GSH (in words)” value in series [13] was “formed conjugation with GSH”.
